Measured values reported in patent USRE35053E, “Amines useful in producing pharmaceutically active CNS compounds” (The Upjohn Company, priority 1992, dated 1995).
Counter-ions that a name gives are not always drawn.

Tests used:
[1] = system: arachidonic acid; test: Arachidonic Acid Antagonism Assay (AAAA); format: in vivo, mouse (Charles River male CF-1); settings: mice; for arachidonic acid antagonism (elevation of LD50 of arachidonic acid): IV, 15 min before sodium arachidonate, outside 95% confidence interval of control LD50
Protocol: While not necessary to determine arachidonic acid antagonism, the above assay has been modified as follows: Charles River male CF-1 mice weighing […] are treated IV with the test compound dissolved in 1.0% Tween-80 and 0.1% hydrochloric acid in distilled water. 0 2 ml total volume. Fifteen minutes later sodium arachidonate (90% pure) in physiological (normal) […] is injected into the tail vein. The LD50 is measured using the Spearman-Karber method with a log dose interval of 0.05 (N-6). Compounds which elevate the LD50 outside of the 95% confidence interval of the control LD50 are considered to be "active".

[2] = system: interleukin-1; test: inhibition of interleukin-1 induced T cell proliferation assay; format: cell-based; settings: active = >30% at 10^-6 M
Excerpt: The inhibition of interleukin-1 induced T cell proliferation assay, Proc. Nat. […] Since people with arthritis make excess interleukin 1, compounds which inhibit the activity of interleukin 1 are useful in the treatment of arthritis. According to this procedure compounds which inhibit the activity of interleukin 1 greater that 30% at 10^-6 M are considered to be "active".

[3] = system: angiogenesis; test: fertile egg or chick embryo assay of Folkman (inhibition of angiogenesis / tumor growth); format: in vivo; settings: chick embryo; for inhibition of angiogenesis: 50 μg/10 μl with heparin, avascular zone 4 mm or greater
Protocol: According to this procedure compounds which are considered to be "active" (i.e, antiangiogenic) give an avascular zone of 4 mm or greater in some embryos when tested at 50 μg/10 μl in the presence of 50 μg/10 μ of heparin.

[4] = system: MDA formation in rat brain synaptosomes; test: Malonyldialdehyde (MDA) Formation Assay (lipid peroxidation); format: biochemical; settings: active = 50% inhibition or more at 200 μM or less
Excerpt: The MDA assays of Buege and Aust, Methods in Enzymology, Fleisher and Packer Editors. Academic Press, 1978, New York, Vol LII, p 302-310 and Kohn and Liversedge, J. Pharmacol. Exp. Ther. 82. […] Since iipid peroxidation is involved in the pathophysiology of central nervous system trauma, compounds which inhibit MDA formation are useful in treating the conditions listed below.
While not necessary to determine MDA formation, the above assays have been modified as follows: rat brain synaptosomes are prepared as described in the Example about the conjugated diene assay, except that the final wash of the synaptosomes and final suspension are in physiological (normal) saline in which the pH has been adjusted to 7 0. The synaptosomes are incubated for 10 min at 37° in physiological (normal) saline pH 7.0 (total volume=100 ul) containing; 10 ul synaptosomal suspension. 10% DMSO plus or minus drug. 150 uM Fe^+++ and 50 uM Fe^++. The incubation is started by the rapid addition of iron to the otherwise complete reaction. The iron solutions are prepared fresh as ferric chloride and ferrous ammonium sulfate in argon-purged water. Following the 10 min incubation, the reaction is stopped by the addition of 500 ul ice-cold 12% trichloroacetic acid prepared in 0.5 N hydrochloric acid. Water (300 ul) is then added along with 100 ul of freshly prepared thiobarbituric acid (3.3% in 0.5N sodium hydroxide) and 10 ul of 5mM desferrioxamine. The sample is then heated in a boiling water bath for 20 minutes. The samples are cooled and centrifuged for 15 minutes at 1500 xg and the absorbance of the supernatant fraction is read at 532 nm. The % inhibition of MDA formation is calculated by dividing the absorbance of sample containing drug by the absorbance of samples incubated without drug. Reaction blanks are samples incubated in the absence of iron A compound that inhibits MDA formation by 50% or more at a concentration of 200μM or less is considered "active".

Row | SMILES | inhibition of interleukin 1 [2] | inhibition of angiogenesis [3] | inhibition of MDA formation [4] | further results
1 | C[C@H]1C[C@@H]2[C@H]([C@@H](O)C[C@@]3(C)[C@H]2CC[C@]3(O)C(=O)CN2CCN(c3ccccn3)CC2)[C@@]2(C)C=CC(=O)C=C12 [Example 21, 11β,17α-dihydroxy-6α-methyl-21-[4-(2-pyridinyl)-1-piperazinyl]pregna-1,4-diene-3,20-dione] | demonstrate inhibition of interleukin 1 | demonstrate inhibition of angiogenesis |  | arachidonic acid antagonism (elevation of LD50 of arachidonic acid) [1]: demonstrate arachidonic acid antagonism; % of Embryos with 4 mm or Greater A vascular Zone ([3]; 50 μg/10 μl in the presence of heparin): 91%
2 | CN(CCN(C)c1ccccn1)CC(=O)[C@@]1(O)CC[C@H]2[C@@H]3CCC4=CC(=O)CC[C@]4(C)C3=CC[C@@]21C.Cl.Cl [Example 24, 17α-hydroxy-21-[methyl[2-(methyl-2-pyridinylamino)ethyl]amino]pregna-4,9(11)-diene-3,20-dione dihydrochloride] |  | demonstrate inhibition of angiogenesis |  | arachidonic acid antagonism (elevation of LD50 of arachidonic acid) [1]: demonstrate arachidonic acid antagonism
3 | COc1ccc(CCN(CC(=O)[C@@]2(O)CC[C@H]3[C@@H]4CCC5=CC(=O)CC[C@]5(C)C4=CC[C@@]32C)Cc2cc(OC)c(OC)c(OC)c2)cc1OC [Example 37, 17α-hydroxy-21-[[2-(3,4-dimethoxyphenyl)ethyl]-[3,4,5-trimethoxyphenyl)methyl]amino]pregna-4,9(11)diene-3,20-dione hydrochloride] | demonstrate inhibition of interleukin 1 | demonstrate inhibition of angiogenesis |  | 
4 | C[C@]12CCC(=O)C=C1CC[C@@H]1C2=CC[C@@]2(C)[C@H]1CC[C@]2(O)C(=O)CN1CCN(c2cccc(N3CCCC3)n2)CC1 [Example 62, 17α-hydroxy-21-[4-[6-(1-pyrrolidinyl)-2-pyridinyl]-1-piperazinyl]pregna-4,9(11)-diene-3,20-dione(E)-2-butenedioate (1:1) salt] |  |  | demonstrate such activity | % of Control LD50 ([1]; 100 mg/kg, LD50 of sodium arachidonate): 138%; arachidonic acid antagonism (elevation of LD50 of arachidonic acid) [1]: demonstrate arachidonic acid antagonism
5 | C[C@]12CC(=O)[C@H]3[C@@H](CCC4=CC(=O)CC[C@@]43C)[C@@H]1CC[C@@H]2C(=O)CN1CCN(c2cc(N3CCCC3)nc(N3CCCC3)n2)CC1.Cl.Cl [Example 94, 21-[4-[2,6-bis(1-pyrrolidinyl)-4-pyrimidinyl]-1-piperazinyl]-pregn-4-ene-3,11,20-trione dihydrochloride] | demonstrate inhibition of interleukin 1 |  |  | 
6 | CCN(CC)c1ccc(N(C)C)c(N2CCN(CC(=O)[C@@]3(O)CC[C@H]4[C@@H]5CCC6=CC(=O)CC[C@]6(C)C5=CC[C@@]43C)CC2)n1.Cl.Cl [Example 96, 21-[4-[6-(diethylamino)-3-(dimethylamino)-2-pyridinyl]-1-piperazinyl]-17α-hydroxypregna-4,9(11)-diene-3,20-dione dihydrochloride] | demonstrate inhibition of interleukin 1 |  |  | 
7 | C[C@]12CC[C@H]3[C@@H](CCC4=CC(=O)C=C[C@@]43C)[C@@H]1CC[C@@H]2C(=O)CN1CCN(c2cc(N3CCCC3)nc(N3CCCC3)n2)CC1.Cl.Cl [Example 97, 21-[4-[2,6-di-(1-pyrrolidinyl)-4-pyrimidinyl]-1-piperazinyl]-pregna-1,4-diene-3,20-dione dihydrochloride] | demonstrate inhibition of interleukin 1 | demonstrate inhibition of angiogenesis |  | 
8 | CN1CCN(CC(=O)[C@@]2(O)CC[C@H]3[C@@H]4CCC5=CC(=O)CC[C@]5(C)C4=CC[C@@]32C)CC1 [Example 101, 17α-hydroxy-21-(4-methyl-1-piperazinyl)-pregna-4,9(11)-diene-3,20-dione] | demonstrate inhibition of interleukin 1 |  |  | 
9 | C[C@]12CCC(=O)C=C1CC[C@@H]1C2=CC[C@]2(C)[C@@H](CCN3CCN(c4cc(N5CCCC5)nc(N5CCCC5)n4)CC3)CC[C@@H]12.Cl [Example 104, 21-[4-(2,6-Bis(1-pyrrolidinyl)-4-pyrimidinyl)-1-piperazinyl]pregna-4,9(11)-dien-3-one hydrochloride] |  | demonstrate inhibition of angiogenesis | demonstrate such activity | 
10 | C[C@]12CC[C@H]3[C@@H](CCC4=CC(=O)CC[C@@]43C)[C@@H]1CC[C@@H]2CCN1CCN(c2cc(N3CCCC3)nc(N3CCCC3)n2)CC1.Cl [Example 107, 21-[4-(2,6-Bis(1-pyrrolidinyl)-4-pyrimidinyl)-1-piperazinyl]pregna-4-ene-3-one hydrochloride] |  |  | demonstrate such activity | 
11 | C[C@@]12C(=CC(=O)C[C@@H]1C#N)CC[C@@H]1C2=CC[C@]2(C)[C@@H](CCN3CCN(c4cc(N5CCCC5)nc(N5CCCC5)n4)CC3)CC[C@@H]12.Cl.Cl.Cl.O [Example 110, 21-[4-(2,6-Bis(1-pyrrolidinyl)-4-pyrimidinyl)-1-piperazinyl]-1α-cyanopregna-4,9(11)-diene-3-one-trihydrochloride, hydrate] |  |  | demonstrate such activity | 
12 | C[C@H]1C[C@H]2[C@@H]3C[C@H](F)C4=CC(=O)CC[C@]4(C)C3=CC[C@]2(C)[C@@]1(O)C(=O)CN1CCN(c2cc(N3CCCC3)nc(N3CCCC3)n2)CC1.Cl.Cl [Example 118, 6α-Fluoro-17α-hydroxy-16β-methyl-21-[4-[2,6-bis(1-pyrrolidinyl)-4-pyrimidinyl]-1-piperazinyl]-pregna-4,9(11)-diene-3,20-dione dihydrochloride] |  |  | demonstrate such activity | 
13 | C[C@@H]1C[C@H]2[C@@H]3CCC4=CC(=O)C=C[C@]4(C)[C@H]3CC[C@]2(C)[C@H]1C(=O)CN1CCN(c2cc(N3CCCC3)nc(N3CCCC3)n2)CC1.Cl.Cl [Example 121, 16α-Methyl-21-[4-[2,6-bis(1-pyrrolidinyl)-4-pyrimidinyl]-1-piperazinyl]pregna-1,4-diene-3,20-dione dihydrochloride] |  |  | demonstrate such activity | 
14 | COc1ccc2c(c1)CC[C@@H]1[C@@H]2CC[C@@]2(C)[C@H]1CC[C@]2(O)C(=O)CN1CCN(c2cc(N3CCCC3)nc(N3CCCC3)n2)CC1 [Example 125, 3,17α-Dihydroxy-21-[4-[2,6-bis(1-pyrrolidinyl)-4-pyrimidinyl]-1-piperazinyl]-19-norpregna-1,3,5(10)-trien-20-one 3-methyl ether (E)-2-butenedioate 1:1 salt] |  |  | demonstrate such activity | 
15 | C[C@]12CC[C@@H]3c4ccc(O)cc4CC[C@H]3[C@@H]1CC[C@]2(O)C(=O)CN1CCN(c2cc(N3CCCC3)nc(N3CCCC3)n2)CC1 [Example 129, 3,17α-Dihydroxy-21-[4-[2,6-bis(1-pyrrolidinyl)-4-pyrimidinyl]-1-piperazinyl]-19-norpregna-1,3,5(10)-trien-20-one(E)-2-butenedioate 1:1 salt] |  |  | demonstrate such activity | 
